Measurements: patent US20200384072A1, “THERAPY OF IONIZING RADIATION-INDUCED DISORDERS” (SCK-CEN, priority 2019, published 2020)

Tests used:
[1] = target: T1, Cx43 hemichannels (Homo sapiens, UniProt P17302); experiment: Propidium iodide dye uptake assay after irradiation, TIME cells; format: cell-based
T1 construct: endogenous in cells; host or cells: TICAE and TIME cells (human endothelial cell lines)
Source text: Hemichannel opening was also investigated by dye uptake studies making use of the hemichannel permeable fluorescent tracer propidium iodide (PI; MW 668.4 Da). In addition, dextran fluorescein 10 kDa dye was used to assess membrane integrity and occurrence of cell death. PI stains cells with open hemichannels, late apoptotic and necrotic cells, while dextran fluorescein only stains late apoptotic and necrotic cells. Therefore, PI-positive and dextran fluorescein-negative cells are a measure for hemichannel opening while dextran fluorescein-positive cells are a measure for dead cells.
TICAE and TIME cells were seeded in a 24-well plate at a density of 1.25×10^5 and 1.5×10^5 cells/well, respectively, in six biological replicates. Three days later, cells reached 100% confluence. Thirty minutes before irradiation, cells were refreshed with 1 ml medium alone or with medium supplemented with 100 μM TAT-Gap19 (Genosphere Biotechnologies, Paris, France). For fractionated irradiation, cells were refreshed with 1.5 ml medium/well. […] Finally, the fluorescence was measured using an IncuCyte ZOOM® system (Essen BioScience, Ann Arbor, Mich., USA) by using different channels (TRITC, FITC and phase contrast) and a 10× objective Fluorescence signal was normalized to cell number.

[2] = tested on: TIME cells; experiment: IGFBP-7 and GDF-15 multiplex-based assays, TIME cells; format: cell-based, human; settings: 7 d p.i.
Experimental: TICAE and TIME cells were seeded in a 6-well plate at a density of 2.5×10^5 cells/well in 5 to 6 biological replicates. Two to three days later, cells reached 100% confluence. At 30 minutes before X-ray exposure, cells were refreshed with medium with or without 100 μM TAT-Gap19 (Genosphere Biotechnologies, Paris, France). At 24 h, 48 h, 72 h and 7 d after irradiation, the supernatant was collected. Medium was changed only for the 7 d time point experiment at the fourth day with fresh medium alone or with medium supplemented with 100 μM TAT-Gap19. For the simultaneous detection of multiple cytokines in the supernatants, the Magnetic Luminex® Assay (R&D systems, Minneapolis, […]) was used following manufacturer's instructions. Briefly, supernatants, standards and microparticles were incubated into a 96-well plate which was pre-coated with cytokine-specific antibodies. The immobilized antibodies were able to bind the cytokines of interest after 2 h incubation, then the plate was washed and incubation with a biotinylated antibody cocktail specific to the cytokines of interest was performed for 1 h. A second wash was performed to remove the unbound biotinylated antibodies. Further, a streptavidin-phycoerythrin conjugate was added to each well to bind to the biotinylated antibodies. After a final wash, the microparticles were resuspended in buffer and read using the Luminex® MAGPIX Analyzer (R&D systems, Minneapolis, […]).

[3] = tested on: TICAE cells; experiment: DNA damage, gamma H2AX and TP53BP1 foci, TICAE cells; format: cell-based, human; settings: 100 μM TAT-Gap19, 0.1 and 5 Gy, 1 h p.i.
Experimental: To detect DNA double strand breaks after IR, TICAE and TIME cells were seeded in Nunc™ Lab-Tek™ Chamber Slide (Thermo Fisher Scientific, Asse, Belgium) in 8 replicates, at seeding density of 50 000 cells/well. Two days later, cells reached 100% confluence. At 30 min before IR, a fresh medium was added to the cells with or without 100 μM TAT-Gap19. At 1 h post irradiation, cells were fixed with 2% PFA (Sigma-Aldrich Co. LCC, Diegem, Belgium) and permeabilized with 0.25% Triton X-100 (Sigma-Aldrich Co. LCC, Diegem, Belgium) in PBS. Cells were blocked for 1 h in 1% normal goat serum (Thermo Fisher Scientific, Asse, Belgium) in Tris-NaCl (Perkin Elmer, Brussels, Belgium). Thereafter, staining with 1/300 primary anti-gamma H2AX antibody (Merck-Millipore #05-636) and 1/1000 anti-TP53BP1 antibody (Novus Biologicals #NB100-304) was performed for 1 h at 37° C. After washing 3 times with PBS, secondary Alexa Fluor 488 and 568 antibodies (Life Technologies, Merelbeke, Belgium) were applied for 1 h at 37° C. Finally, the slides were mounted using ProLong Diamond Antifade Mountant with DAPI (Life Technologies, Merelbeke, Belgium), and cells were visualized with an Eclipse Ti automated inverted wide-field epifluorescence microscope (Nikon, Brussels, Belgium) equipped with a 20×Plan Fluor objective (NA 0.6) and an Andor Ixon EMCCD camera, controlled by the MS Elements software. […]

T1 sequence (P17302 whole entry): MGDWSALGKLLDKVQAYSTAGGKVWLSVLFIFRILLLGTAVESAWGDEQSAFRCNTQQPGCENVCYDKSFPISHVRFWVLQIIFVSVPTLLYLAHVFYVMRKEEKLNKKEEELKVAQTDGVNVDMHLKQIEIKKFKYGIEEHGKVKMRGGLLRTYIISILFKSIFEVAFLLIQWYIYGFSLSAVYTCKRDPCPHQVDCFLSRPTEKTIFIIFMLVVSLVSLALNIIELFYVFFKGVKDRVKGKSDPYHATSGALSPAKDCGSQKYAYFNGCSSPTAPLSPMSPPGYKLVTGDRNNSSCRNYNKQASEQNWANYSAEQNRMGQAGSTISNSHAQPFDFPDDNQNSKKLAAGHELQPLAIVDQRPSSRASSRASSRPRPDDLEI

## TAT-Gap19: connexin mimetic peptide, amino-acids 128-136 of the CL of Cx43 (SEQ ID NO: 2), Gap19 linked to TAT sequence; Cx43 hemichannel inhibitor (YGRKKRRQRRRKQIEIKKFK)
[1]; 100 μM TAT-Gap19, fractionated 5 Gy, 72 h
  radiation-induced PI dye uptake: had no effect
[1]; 100 μM TAT-Gap19, single irradiation, 72 h p.i.
  radiation-induced PI dye uptake: most clear and significant at the 72 h p.i. time point
[2]; 100 μM TAT-Gap19, 0, 0.1 and 5 Gy
  GDF-15: significantly inhibited these responses in all treated conditions
[2]; 100 μM TAT-Gap19, 0 Gy control
  IGFBP-7 control readout: increased
[2]; 100 μM TAT-Gap19, 0.1 Gy
  IGFBP-7: acted in a significantly inhibitory way
[2]; 100 μM TAT-Gap19, 5 Gy
  IGFBP-7 (radiation-induced increase): not inhibited
[3]
  gamma H2AX, TP53BP1 and colocalized foci (radiation-induced DNA damage): not affected
